{"source": "patent US5078986A", "about": "“Method for enhancing magnetic resonance imaging using an image altering agent containing an excess of chelating agent” (Mallinckrodt Medical, Inc., priority 1990, dated 1992)", "key": {"mice": {"test_system": "mice", "test": "Acute intravenous toxicity in mice (Example 7)", "format": "in vivo, Swiss CF-1 albino mouse", "description": "The acute intravenous toxicity of disodium (diethylenetriaminepentaacetato)gadolinium (III) (composition C of Example 1) was studied.\nA total of 16 Swiss CF-1 albino mice (8 male, 22.0-25.6 g; 8 female, 18.2-24.1 g) were used. Picric acid markings were used for individual identification.\nThe protocol of Example 4 was used. Groups of 2-4 mice, with sexes equally represented, received single intravenous doses of the test substance according to the following schedule: […]"}, "[1]": {"test_system": "tissue and blood protons of rabbits", "test": "Tissue and blood proton T1 and T2 values in rabbits (Example 9)", "format": "in vivo, rabbit", "conditions": "0.51 mmol/kg i.v., 15 min", "method": "The EKG was recorded with surface electrodes."}, "[2]": {"test_system": "normal and infarcted myocardial tissue, blood", "test": "Proton T1 values of myocardium and blood in dogs with coronary occlusion (Example 10)", "format": "in vivo, dog", "conditions": "for Blood T1: before 510"}, "[3]": {"test_system": "excised hearts (normal and infarcted tissues)", "test": "NMR imaging of excised hearts of dogs with coronary occlusion (Example 10)", "format": "in vivo, dog", "conditions": "2 ml/kg (0.34 mmol Gd(III)/kg), 10 min", "method": "Selective catheterization of the left anterior descending coronary artery or circumflex coronary artery was achieved via a percutaneous intracarotid artery approach in anesthetized dogs. Gelfoam plugs were inserted into the coronary artery, via the catheter, in order to produce coronary occlusion. Animals were treated with lidocaine to prevent coronary arrhythmias and morphine to relieve pain."}, "[4]": {"test_system": "renal medulla and renal cortex", "test": "Abdominal NMR imaging in rabbits (Example 11)", "format": "in vivo, rabbit", "conditions": "0.3 ml/kg (0.5 mmol Gd(III)/kg) i.v.", "method": "Two rabbits were anesthetized and abdominal NMR images were obtained in the General Electric NMR scanner. Rabbits then received intravenous doses of 0.3 ml/kg (0.5 mmol Gd(III)/kg) of the preparation of composition D of Example 1 (GdNa2 DTPA) and additional abdominal NMR images were made over a period of two hours after dosing."}}, "note": "“Also recorded” adds a separate entry of the source.", "data": [{"smiles": "O=C([O-])CN(CCN(CC(=O)[O-])CC(=O)[O-])CCN(CC(=O)[O-])CC(=O)[O-].[Gd+3].[Na+].[Na+]", "note": "[GdNa2 DTPA, disodium (diethylenetriaminepentaacetato)gadolinium (III)]", "values": [{"measurement": "Dose up to which no deaths were observed", "setting": "mice; mouse, i.v.", "value": 12000, "unit": "mg/kg"}, {"measurement": "Ataxia", "setting": "mice; mouse, in vivo", "value": "slight ataxia"}, {"measurement": "Body weight (in words)", "setting": "mice; mouse, in vivo", "value": "slight reduction in body weight"}, {"measurement": "Respiratory distress", "setting": "mice; mouse, in vivo", "value": "respiratory distress was observed"}, {"measurement": "Time until all mice appeared normal", "setting": "mice; mouse, in vivo, iv", "value": "≤ 6", "unit": "h"}, {"measurement": "Acute intravenous toxicity profile (in words)", "setting": "mice; up to 12.0 g/kg", "value": "relatively safe mouse acute intravenous toxicity profile"}, {"measurement": "Mean tissue T1, Fat", "setting": "[1]", "value": 61, "unit": "ms"}, {"measurement": "Mean tissue T1, Renal Medulla", "setting": "[1]", "value": 130, "unit": "ms"}, {"measurement": "T1, infarcted regions of heart muscle", "setting": "[2]; 0.17 mmol Gd(III)/kg i.v., 10 min", "value": 290, "unit": "ms"}, {"measurement": "T1, normally perfused myocardial tissue", "setting": "[2]; 0.17 mmol Gd(III)/kg i.v., 10 min, untreated 330", "value": 180, "unit": "ms"}, {"measurement": "Blood T1", "setting": "[2]; 0.34 mmol Gd(III)/kg, 5 minutes", "value": 50, "unit": "ms"}, {"measurement": "T1, infarcted tissue", "setting": "[2]; 0.34 mmol Gd(III)/kg, 10 min", "value": 230, "unit": "ms"}, {"measurement": "T1, normally perfused myocardium", "setting": "[2]; 0.34 mmol Gd(III)/kg, 10 min, untreated 330", "value": 135, "unit": "ms"}, {"measurement": "Blood T1", "setting": "[2]; 0.34 mmol Gd(III)/kg, 10 minutes", "value": 100, "unit": "ms"}, {"measurement": "Image differences between normal and infarcted tissues", "setting": "[3]", "value": "marked differences between normal and infarcted tissues; also recorded: greater than that observed in hearts from dogs with infarcts who had not received a contrast enhancement agent"}, {"measurement": "T1 image of blood remaining in the ventricles", "setting": "[3]", "value": "much different T1 image"}, {"measurement": "Alteration of renal proton images", "setting": "[4]", "value": "Marked alteration of renal medulla and renal cortex proton images"}, {"measurement": "Time to peak effects", "setting": "[4]", "value": "≤ 15", "unit": "min"}]}]}
